Key:
[1] = SDS-PAGE; assay type: physicochemical; conditions: 25 μM amyloid peptide alone; for size of monomers and oligomers (SDS-PAGE): 1–2 h; for size of large aggregates (SDS-PAGE): 24 h
[2] = tested on: SH-SY5Y cells; experiment: MTT cell viability, SH-SY5Y; assay type: cell-based, human; conditions: 25 μM amyloid, 24 h, n = 3
[3] = tested on: SH-SY5Y cells; experiment: LDH membrane leakage, SH-SY5Y; assay type: cell-based, human; conditions: 25 μM amyloid, 24 h, n = 3
[4] = tested on: S. epidermidis; experiment: Bacterial growth assay, S. epidermidis; assay type: cell-based, Staphylococcus epidermidis (ATCC 14990); conditions: amyloid peptides 25 μM
[5] = tested on: E. coli, P. aeruginosa, S. aureus and S. epidermidis; experiment: Bacterial growth assay, four strains together; assay type: cell-based; conditions: hCT 25 μM, growth profiles
[6] = tested on: RIN-5fm cells; experiment: MTT cell viability, RIN-5fm; assay type: cell-based, rat; conditions: 25 μM hIAPP, 24 h, n = 3
[7] = tested on: RIN-5fm cells; experiment: LDH membrane leakage, RIN-5fm; assay type: cell-based, rat; conditions: 25 μM hIAPP, 24 h, n = 3

| size of monomers and oligomers (SDS-PAGE) [1] | size of large aggregates (SDS-PAGE) [1] [kDa] | membrane leakage (LDH activity), amyloid alone [3] [%] | membrane leakage (LDH activity), amyloid alone [7] [%] | Compound | cell viability, amyloid alone [2] [%] | susceptibility of S. epidermidis [4] | growth inhibition [5] | cell viability, amyloid alone [6] [%] |
| --- | --- | --- | --- | --- | --- | --- | --- | --- |
| 5–15 kDa | > 25 | 26 |  | CC[C@H](C)[C@H](NC(=O)[C@H](C)NC(=O)[C@@H](NC(=O)[C@H](CCC(N)=O)NC(=O)[C@@H]1CCCN1C(=O)[C@H](Cc1ccccc1)NC(=O)[C@@H](NC(=O)[C@H](Cc1c[nH]cn1)NC(=O)[C@H](Cc1ccccc1)NC(=O)[C@H](CCCCN)NC(=O)[C@H](CC(N)=O)NC(=O)[C@H](Cc1ccccc1)NC(=O)[C@H](CC(=O)O)NC(=O)[C@H](CCC(N)=O)NC(=O)[C@@H](NC(=O)[C@H](Cc1ccc(O)cc1)NC(=O)[C@@H](NC(=O)CNC(=O)[C@H](CC(C)C)NC(=O)[C@H](CCSC)NC(=O)[C@@H]1CSSC[C@H](N)C(=O)NCC(=O)N[C@@H](CC(N)=O)C(=O)N[C@@H](CC(C)C)C(=O)N[C@@H](CO)C(=O)N[C@@H]([C@@H](C)O)C(=O)N1)[C@@H](C)O)[C@@H](C)O)[C@@H](C)O)[C@@H](C)O)C(=O)NCC(=O)N[C@H](C(=O)NCC(=O)N[C@@H](C)C(=O)N1CCC[C@H]1C(N)=O)C(C)C [hCT, human calcitonin 1–32] | 69 | not susceptible | only inhibited the growth of P. aeruginosa |  |
| 5–15 kDa | > 25 |  | 36 | CC[C@H](C)[C@H](NC(=O)[C@H](C)NC(=O)CNC(=O)[C@H](Cc1ccccc1)NC(=O)[C@H](CC(N)=O)NC(=O)[C@H](CC(N)=O)NC(=O)[C@H](CO)NC(=O)[C@H](CO)NC(=O)[C@H](Cc1c[nH]cn1)NC(=O)[C@@H](NC(=O)[C@H](CC(C)C)NC(=O)[C@H](Cc1ccccc1)NC(=O)[C@H](CC(N)=O)NC(=O)[C@H](C)NC(=O)[C@H](CC(C)C)NC(=O)[C@H](CCCNC(=N)N)NC(=O)[C@H](CCC(N)=O)NC(=O)[C@@H](NC(=O)[C@H](C)NC(=O)[C@@H]1CSSC[C@H](NC(=O)[C@@H](N)CCCCN)C(=O)N[C@@H](CC(N)=O)C(=O)N[C@@H]([C@@H](C)O)C(=O)N[C@@H](C)C(=O)N[C@@H]([C@@H](C)O)C(=O)N1)[C@@H](C)O)C(C)C)C(=O)N[C@@H](CC(C)C)C(=O)N[C@@H](CO)C(=O)N[C@@H](CO)C(=O)N[C@H](C(=O)N[C@@H](CC(N)=O)C(=O)N[C@H](C(=O)NCC(=O)N[C@@H](CO)C(=O)N[C@@H](CC(N)=O)C(=O)N[C@H](C(=O)N[C@@H](Cc1ccc(O)cc1)C(N)=O)[C@@H](C)O)C(C)C)[C@@H](C)O [hIAPP, human islet amyloid polypeptide 1–37] |  | not susceptible |  | 58 |
